We go through 17 compounds from publication PMC8848500 (Bioorganic & medicinal chemistry, 2020).

For orientation: IC50 means the concentration needed to halve the response being measured. Read a low IC50 as higher potency.

Tested on in one data set: not listed separately
In words: Chemical stability at room temperature. The following applies: conversion to precursors 14 and 18. Format: physicochemical.
For `Cc1cccc(C(=O)n2cc(C#N)c3nccnc32)c1` [Compound 19a, 5-(3-Methylbenzoyl)-5H-pyrrolo[2,3-b]pyrazine-7-carbonitrile], the chemical stability result is reported as “not chemically stable”.

On to `Cc1cccc(C(=O)n2ccc3nccnc32)c1` [Compound 15a, (5H-Pyrrolo[2,3-b]pyrazin-5-yl)(m-tolyl)methanone], for which the chemical stability entry is listed as “not chemically stable”.

A further data set addresses T1, human neutrophil elastase (HNE) (Homo sapiens, UniProt P08246).
T1 sequence (P08246 30-267): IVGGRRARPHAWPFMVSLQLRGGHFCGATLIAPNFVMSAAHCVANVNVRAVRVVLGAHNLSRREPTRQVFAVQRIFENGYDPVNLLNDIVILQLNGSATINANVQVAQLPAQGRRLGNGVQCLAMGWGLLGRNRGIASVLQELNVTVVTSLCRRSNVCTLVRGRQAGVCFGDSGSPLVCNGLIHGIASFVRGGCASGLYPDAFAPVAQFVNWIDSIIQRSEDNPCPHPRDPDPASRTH
In words: HNE inhibition assay. Format: biochemical.
Conditions: not given
With `COc1cccc(NC(=O)c2cnc3cc(C)nn3c2C)c1` [Compound 22a, N-(3-Methoxyphenyl)-2,7-dimethylpyrazolo[1,5-a]pyrimidine-6-carboxamide], the IC50 is more than 50 µM.

Compound `COc1cccc(CNC(=O)c2cnc3cc(C)nn3c2C)c1` [Compound 22d, N-(3-Methoxybenzyl)-2,7-dimethylpyrazolo[1,5-a]pyrimidine-6-carboxamide] gave an IC50 of more than 50 µM.

For `N#Cc1cn(C(=O)C2CC2)c2cnccc12` [Compound 13f, 1-(Cyclopropanecarbonyl)-1H-pyrrolo[2,3-c]pyridine-3-carbonitrile], the “HNE inhibitory activity (in words)” value was “reduced activity compared to the reference compounds B and C”.

Take `COc1cccc(NC(=O)c2cnc3c(Cl)c(C(C)(C)C)nn3c2C)c1` [Compound 22c, 2-(tert-Butyl)-3-chloro-N-(3-methoxyphenyl)-7-methylpyrazolo[1,5-a]pyrimidine-6-carboxamide]: the IC50 is more than 50 µM.

In turn, `CC(=O)n1nc(NC(=O)c2cccc(C)c2)c2cccnc21` [Compound 9, N-(1-Acetyl-1H-pyrazolo[3,4-b]pyridin-3-yl)-3-methylbenzamide] gave an IC50 of 25.2 ± 1.3 µM.

As for `COc1cccc(CNC(=O)c2cnc3cc(C(C)(C)C)nn3c2C)c1` [Compound 22e, 2-(tert-Butyl)-N-(3-methoxybenzyl)-7-methylpyrazolo[1,5-a]pyrimidine-6-carboxamide], the IC50 is more than 50 µM.

`N#Cc1nn(C(=O)c2ccccc2)c2ncccc12` [Compound 2d, 1-Benzoyl-1H-pyrazolo[3,4-b]pyridine-3-carbonitrile] yielded an IC50 of 0.14 µM.

Regarding `Cc1cccc(C(=O)n2cc(C#N)c3ccncc32)c1` [Compound 13e, 1-(3-Methylbenzoyl)-1H-pyrrolo[2,3-c]pyridine-3-carbonitrile], the “HNE inhibitory activity (in words)” value was “reduced activity compared to the reference compounds B and C”.

In turn, `O=C(Nc1nn(C(=O)C2CC2)c2ncccc12)C1CC1` [Compound 7, N-(1-(Cyclopropanecarbonyl)-1H-pyrazolo[3,4-b]pyridin-3-yl)cyclopropanecarboxamide] gave an IC50 of 1.5 ± 0.14 µM.

For `O=C(C1CC1)n1ccc2nccnc21` [Compound 15b, Cyclopropyl(5H-pyrrolo[2,3-b]pyrazin-5-yl)methanone], the “HNE inhibitory activity (in words)” value is on record as “reduced activity by two orders of magnitude”.

On to `COc1cccc(NC(=O)c2cnc3cc(C(C)(C)C)nn3c2C)c1` [Compound 22b, 2-(tert-Butyl)-N-(3-methoxyphenyl)-7-methylpyrazolo[1,5-a]pyrimidine-6-carboxamide], for which the IC50 is more than 50 µM.

For the compound `COc1cccc(CNC(=O)c2cnc3c(Cl)c(C(C)(C)C)nn3c2C)c1` [Compound 22f, 2-(tert-Butyl)-3-chloro-N-(3-methoxybenzyl)-7-methylpyrazolo[1,5-a]pyrimidine-6-carboxamide], the IC50 is more than 50 µM.

As for `N#Cc1nn(Cc2ccccc2)c2ncccc12` [Compound 2c, 1-Benzyl-1H-pyrazolo[3,4-b]pyridine-3-carbonitrile], the “HNE inhibitory activity (in words)” value is “complete loss of HNE inhibitory activity” and the IC50 is more than 50 µM.

Regarding `N#Cc1nn(C(=O)C2CCCCC2)c2ncccc12` [Compound 2i, 1-(Cyclohexanecarbonyl)-1H-pyrazolo[3,4-b]pyridine-3-carbonitrile], the “HNE inhibitory activity (in words)” value is listed as “loss of activity”.

The data set is the same for the next values; noted with them: HNE IC50 versus reference A.
Turning to `Cc1cccc(C(=O)n2nc(C#N)c3cccnc32)c1` [Compound 2e, 1-(3-Methylbenzoyl)-1H-pyrazolo[3,4-b]pyridine-3-carbonitrile], the “fold less potent than A” value is reported as 47 fold.
